Measured values from paper PMC9099256, “Toward Novel [^18F]Fluorine-Labeled Radiotracers for the Imaging of α-Synuclein Fibrils” (Frontiers in Aging Neuroscience, 2022).
Values joined by “and” are separate entries in the source; they are usually repeats but may differ in a detail not shown here. Equal entries are not always repeated.

Key:
[1] = Log D determination (octanol/PBS pH 7.4); assay type: physicochemical
Experimental: To a solution of [^18F]d2, [^18F]d4, [^18F]d6, and [^18F]d8 (0.5–1.0 MBq) in 0.5 mL octanol, 0.5 mL PBS (pH 7.4) was added in a 1.5 mL Eppendorf vial. The vials were vigorously vortexed for 10 min. To achieve efficient phase separation, the vials were centrifuged for 10 min at 13,000 rpm in a Heraeus Biofuge 13 centrifuge. Aliquots (100 μL) of the aqueous and the octanol phase were collected carefully and the amount radioactivity in the respective samples was quantified using a γ-counter. The log octanol/PBS values were calculated from the means of n = 3 separate determinations.

[2] = In vitro plasma protein binding (ultrafiltration); assay type: in vitro ADME, human
Experimental: To estimate the free fraction (fp) of the radioligands in the plasma, an ultrafiltration method was used. Approximately 1 MBq of [^18F]d2, [^18F]d4, [^18F]d6, and [^18F]d8 were added to 450 μL of Seronorm Human plasma (Invicon GmbH, Munich, Germany), and the mixture was incubated for 10 min. After incubation, 150 μL of plasma was transferred into 3 ultrafiltration tubes (Centrifree YM-30; cutoff 30,000 MW; Millipore) and centrifuged at 8,000 rpm for 10 min. Equal aliquots of the ultrafiltrate (Cfree), and of the plasma (Ctotal) were counted for their radioactivity with a γ-counter. The fp of the radioligands was calculated as fp = Cfree/Ctotal (n = 3).

[3] = Biodistribution experiments; assay type: in vivo, healthy C57BL/6J mice
Experimental: The ethanol solutions containing the tracers [^18F]d2, [^18F]d4, [^18F]d6, and [^18F]d8 were diluted with DMSO, Tween-20, and saline added consecutively to achieve a final concentration of 2.4, 2.4, and 0.4% of ethanol, DMSO, and Tween-20, respectively. The pH was adjusted with 0.05 N aqueous sodium hydroxide solution. 1.5–2.5 MBq of [^18F]d2, [^18F]d4, [^18F]d6, and [^18F]d8 prepared in the above solvent mixture were administered to the mice via the caudal vein under isoflurane anesthesia. The mice were sacrificed at 5 and 60 min p.i. The following organs/tissues were extracted: blood, heart, lung, liver, stomach, pancreas, colon, small intestine, kidney, muscle, bone, tail, and the brain. The radioactivity in the pre-weighed tissue samples was determined using a γ-counter. Data are expressed as a percent of the injected dose per gram tissue (% ID/g; mean ± sd, n = 3).

[4] = In vivo PET-MRI dynamic scan with biodistribution; set-up: species or system healthy C57BL/6J mice; conditions: healthy mice, i.v., biodistribution after PET dynamic scan
Experimental: For PET imaging [^18F]d6 and [^18F]d8 were prepared as described in section “Biodistribution Experiments” and ∼11 MBq was injected via the caudal vein in the mice (n = 3 for each tracer). PET was recorded on nanoScan PET/MRI (Mediso Medical Imaging System) under isoflurane anesthesia. PET was continuously recorded in list mode for 120 min and consisted of 36 frames (1 × 60 s; 30 × 10 s; 1 × 600 s; 1 × 900 s; and 3 × 1800 s) while anesthesia was maintained. Data were reconstructed using Nucline nanoScan 3.00.021.0000 software, employing a three-dimensional ordered subset expectation maximum (OSEM3D) algorithm without a scatter and attenuation correction. Tissue time–activity curves (TACs) were obtained by projecting the defined ROI onto all frames of the dynamic PET scans. At 2 h after the PET dynamic scan, the mice were promptly euthanized, the rest of the protocol followed as already described in section “Biodistribution Experiments.”

[5] = Metabolite experiments (brain and plasma, 20 min p.i.); assay type: in vivo, healthy mice
Experimental: Tracers [^18F]d6 and [^18F]d8 were prepared as already described above in section “Biodistribution Experiments.” About 80–120 MBq of the tracers were injected via the caudal vein in the mice (n = 3 per tracer). At 20 min p.i., the animals were euthanized, and the needed tissues were extracted and placed on dry ice. To separate plasma from the blood cells, the blood samples were first centrifuged 13,000 rpm for 10 min, then acetonitrile acidified with 1% trifluoroacetic acid (TFA) (10 min, 4°C) was added to the centrifugate to precipitate the plasma proteins, followed by another centrifugation as already described, and ultrafiltration using ultrafiltration tubes (Centrifree YM-30; cutoff 30,000 MW; Millipore). A 10 μL of 1 M DMSO solution of the cold references was added to the centrifugate which was subsequently analyzed by RP-HPLC. The brain was frozen in liquid nitrogen and homogenized with a ball mill. A mixture of acetonitrile and DMSO (5:1) with 1% TFA containing the cold references of the tracers was added to the homogenate and mixed. The suspension was centrifuged. The supernatant was then filtered using ultrafiltration tubes as already described, the resulting filtrate was subsequently analyzed by RP-HPLC.

[18F]c1ccc(-c2csc(-c3nc(-c4cnc5c(c4)OCO5)cs3)n2)cn1 [[^18F]d8, 6-(4′-(6-[^18F]fluoropyridin-3-yl)-[2,2′-bithiazol]-4-yl)-[1,3]dioxolo[4,5-b]pyridine]
reduction of log D versus benzodioxole counterpart ([1]; [18F]d4 vs [18F]d2, [18F]d8 vs [18F]d6): ~7.1%
logD ([1]; octanol/PBS pH 7.4, n = 3): 2.6 ± 0.09
fp relative to benzodioxole counterpart ([2]; [18F]d8 vs [18F]d6, [18F]d4 vs [18F]d2): about 6 times
fp (free plasma fraction) ([2]; human plasma, ultrafiltration, n = 3): 0.85 ± 0.02%
reduction in brain concentration at 5 min p.i. versus [18F]d6 ([3]; healthy mice, 5 min p.i.): 11.4%
brain uptake at 5 min p.i. ([3]; healthy mice, i.v., 5 min p.i.): 5.13 %ID/g
brain uptake at 60 min p.i. ([3]; healthy mice, i.v., 60 min p.i.): ~1 %ID/g and 1.07 %ID/g
brain uptake in mice ([3]; mice, time not stated): > 4 % ID/g
brain uptake at 120 min p.i. [4]: < 1 %ID/g and 0.58 %ID/g
brain radiometabolites ([5]; healthy mice): no brain radiometabolites
parent tracer in brain content ([5]; mice, brain homogenate): > 99%
parent tracer remaining in the plasma (in vivo stability) ([5]; mice, plasma): > 60%
